According to patent publication US20230149409A1, “TREATMENT OF HUMAN PAPILLOMAVIRUS-ASSOCIATED CANCERS BY PD-L1 INHIBITORS” (priority 2021, published 2023):

How the values were obtained:
[1] = tested on: PD-L1 (U2OS/PD-L1 cells, Jurkat-PD-1-SHP cells); test: Src Homology Region 2 Domain-containing Phosphatase (SHP) assay; assay type: cell-based; settings: Homo sapiens; U2OS/PD-L1 + Jurkat-PD-1-SHP cells, 2 hours
Procedure: Example 1B. Src Homology Region 2 Domain-containing Phosphatase (SHP) Assay
U2OS/PD-L1 cells (DiscoveRx Corporation) were maintained in McCoy’s 5A medium with addition of 10% FBS, 0.25 µg/mL Puromycin. After removing the culture media, the cell medium was replaced with assay medium (RPMI1640 medium with 1% FBS). The U2OS/PD-L1 cells were then added in 384-well black clear bottom assay plate (CELLCOAT® Tissue Culture Plates, Greiner Bio-One) at 5000 cells per well in 20 uL assay medium. Test compounds were prepared by serial dilution in DMSO and 125 nL compound were first transferred to the 384 REMP plate well (Thermofisher) by ECHO liquid handler (Labcyte) followed with addition of 27.5 uL assay medium. 5 µL/well compounds in the assay medium were transferred to the cell plate with 0.05% DMSO in the final assay at 0.25 µM. Jurkat-PD-1-SHP cells (DiscoveRx Corporation) were cultured in RPMI1640 medium supplemented with 10% FBS, 250 µg/mL Hygromycin B, 500 µg/mL G418. After the replacement of culture media with assay medium, 5,000 Jurkat-PD-1-SHP cells in 20 µL were dispensed into each well. The assay plate was incubated at 37° C., 5% CO2 for 2 hours before 2.5 uL PathHunter reagent 1 (DiscoveRx Corporation) were added to each well. The assay plate was shaken for 1 min at 350 rpm in the dark followed with addition of 10 uL PathHunter reagent 2 (DiscoveRx Corporation). Chemiluminescent signal was recorded with TopCount reader (Perkin Elmer) after incubation at room temperature for 1 hour. Wells with DMSO were served as the positive controls and wells containing no cells were used as negative controls. IC50 determination was performed by fitting the curve of percentage of control activity versus the log of the compound concentration using the GraphPad Prism 6.0 software.

[2] = tested on: PD-L1 (PD-L1 aAPC/CHO-K1 cells, Jurkat-PD-1-NFAT effector cells); test: Nuclear Factor of Activated T-cells (NFAT) assay; assay type: cell-based; settings: Cricetulus griseus; PD-L1 aAPC/CHO-K1 + Jurkat-PD-1-NFAT cells, 24 hours
Procedure: Nuclear Factor of Activated T-cells (NFAT) Assay
PD-L1 aAPC/CHO-K1cells (Promega) were maintained in F-12 medium with addition of 10% FBS, 200 µg/mL Hygromycin B, 250 µg/mL Geneticin (G418). […] The culture media of PD-L1 aAPC/CHO-K1 cells were first replaced with assay medium (RPMI1640 medium with 1% FBS). The PD-L1 aAPC/CHO-K1cells were then added in a white 384-well white clear bottom assay plate (CELLCOAT® Tissue Culture Plates, Greiner Bio-One) at 8000 per well in 10 uL assay medium. […] 5 uL compounds in the assay medium were transferred to the cells with 0.4% DMSO in the final assay at 2 µM. After removing the culture media, 10,000 Jurkat-PD-1-NFAT effector cells in 5 µL assay medium was dispensed into each well. The assay plate was incubated at 37° C., 5% CO2 for 24 hours. […] After 8 minutes incubation at room temperature, luminescence was read at with Pherastar microplate reader (BMG Labtech). The fold of induction (FOI) was calculated based on the ratio of luminescence normalized to the DMSO wells within each assay plate. The maximum percentage of induction was reported based on the ratio between the highest FOI of each compound and the maximum FOI of control compound within each assay plate. Wells with DMSO were served as the negative controls and wells containing control compound with the highest FOI were used as positive controls. EC50 determination was performed by fitting the curve of percent control activity versus the log of the compound concentration using the GraphPad Prism 6.0 software.

[3] = molecular target: T1, PD-L1 on CD14+ cells in human whole blood (Homo sapiens, UniProt Q9NZQ7); test: PD-L1 whole blood internalization assay; assay type: cell-based; settings: 1 ng/mL interferon γ, CD14+ gated, 24 hour
T1 construct: Cells were gated on CD14+ (BD Biosciences) and PD-L1 expression determined by mean fluorescence intensity; host or cells: CD14+ cells in normal human whole blood, stimulated with human interferon gamma
T1 sequence (Q9NZQ7 19-290): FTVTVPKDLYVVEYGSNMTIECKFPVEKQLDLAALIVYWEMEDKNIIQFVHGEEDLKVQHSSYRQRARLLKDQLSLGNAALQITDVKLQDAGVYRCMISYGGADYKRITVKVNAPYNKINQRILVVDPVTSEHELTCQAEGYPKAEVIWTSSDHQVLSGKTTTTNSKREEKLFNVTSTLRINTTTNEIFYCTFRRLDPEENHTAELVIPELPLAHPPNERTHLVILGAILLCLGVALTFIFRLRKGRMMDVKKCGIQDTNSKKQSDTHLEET
Procedure: PD-L1 Whole Blood Internalization Assay
To determine PD-L1 internalization in human whole blood, normal human blood (Biological Specialty Corp, Colmar. PA) was incubated in the presence or absence of a concentration range of test compounds and 1 ng/mL human interferon γ (R&D Systems Inc. Minn. MN) in a 96 well “2 mL Assay Block” (Corning, Corning NY) for 18-20 hours at 37 °C. Blood was then stained with PD-L1 (MIH1, eBioscience; or BD Biosciences San Jose, CA), CD14 (Life Technologies, Carlsbad, CA) for 30 minutes in the dark at room temperature. Whole Blood/red cells were lysed/fixed (lysis buffer BD Biosciences) for 5 minutes at 37 °C in the dark and then centrifuged at 1600 RPM for 5 minutes. Cells were resuspended in Stain Buffer (BD Bioscience, San Jose, CA) and transferred into 96 well round bottom plates (Coming). Cells were gated on CD14+ (BD Biosciences) and PD-L1 expression determined by mean fluorescence intensity (MFI) (BD LSRFortessa® X-20). IC50 determination was performed by fitting the curve of compound percent inhibition versus the log of the compound concentration using the GraphPad Prism 7.0 software.

[4] = molecular target: T2, PD-⅟PD-L1 (recombinant human PD-L1 protein and human PD-1 protein) (Homo sapiens, UniProt Q9NZQ7); test: Homogeneous Time-Resolved Fluorescence (HTRF) PD-1/PD-L1 binding assay; settings: 3 nM PD1, 10 nM PD-L1, 25° C., PBS pH 7.4
T2 construct: Recombinant human PD-L1 protein (19-238) with a His-tag at the C-terminus; purchased AcroBiosystems PD1-H5229 (PD-L1); PD1-H5257 (PD-1)
T2 sequence (Q9NZQ7 19-238): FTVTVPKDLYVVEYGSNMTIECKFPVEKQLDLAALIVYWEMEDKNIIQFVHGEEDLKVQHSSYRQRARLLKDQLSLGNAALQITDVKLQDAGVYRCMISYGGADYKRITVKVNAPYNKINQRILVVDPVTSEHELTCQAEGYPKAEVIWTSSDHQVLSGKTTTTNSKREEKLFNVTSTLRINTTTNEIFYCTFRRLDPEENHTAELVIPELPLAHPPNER
Procedure: Homogeneous Time-Resolved Fluorescence (HTRF) PD-⅟PD-L1 Binding Assay
The assays were conducted in a standard black 384-well polystyrene plate with a final volume of 20 uL. Inhibitors were first serially diluted in DMSO and then added to the plate wells before the addition of other reaction components. The final concentration of DMSO in the assay was 1%. The assays were carried out at 25° C. in the PBS buffer (pH 7.4) with 0.05% Tween-20 and 0.1% BSA. […] PD-L1 and PD-1 proteins were diluted in the assay buffer and 10 uL was added to the plate well. Plates were centrifuged and proteins were preincubated with inhibitors for 40 minutes. The incubation was followed by the addition of 10 uL of HTRF detection buffer supplemented with Europium cryptate-labeled anti-human IgG (PerkinElmer-AD0212) specific for Fc and anti-His antibody conjugated to SureLight®-Allophycocyanin (APC, PerkinElmer-AD0059H). […] Final concentrations in the assay were - 3 nM PD1, 10 nM PD-L1, 1 nM europium anti-human IgG and 20 nM anti-His-Allophycocyanin. IC50 determination was performed by fitting the curve of percent control activity versus the log of the inhibitor concentration using the GraphPad Prism 5.0 software.

| Structure (SMILES) | IC50 [1] [nM] | EC50 [2] [nM] | IC50 [3] [nM] | IC50 [4] [nM] |
| --- | --- | --- | --- | --- |
| Cc1c(-c2nc3c(s2)CN(C(=O)CN(C)C)C3)cccc1-c1cccc(-c2nc3c(s2)CN(C(=O)CN2CC[C@@H](O)C2)C3)c1C [Compound 14, (R)-2-(dimethylamino)-1-(2-(3′-(5-(2-(3-hydroaypyrrolidin-1-yl)acetyl)-5,6-dihydro-4H-pyrrolo[3,4-d]thiazol-2-yl)-2,2′-dimethylbipheiryl-3-yl)-4H-pyrrolo [3,4-d]thiazol-5(6H)-yl)ethanone] | < 100 | < 500 | – | – |
| Cc1c(Nc2nccc3cc(CN4CC[C@H](O)C4)cnc23)cccc1-c1cccc(-c2nc3cc(CN4CC[C@H](C(=O)O)C4)cc(C#N)c3o2)c1C [Compound 3] | < 10 | < 100 | < 500 | – |
| CCN(C)CC(=O)N1Cc2nc(-c3cccc(-c4cccc(Nc5nccc6cc(CN7CC[C@@H](C(=O)O)C7)cnc56)c4Cl)c3C)sc2C1 [Compound 13, (R)-1-((8-((2-chloro-3′-(5-(N-ethyl-N-methylglycyl)-5,6-dihydro-4H-pyrrolo[3,4-d]thiazol-2-yl)-2′-methyl-[1,1′-biphenyl]-3-yl)amino)-1,7-naphthyridin-3-yl)methyl)pyrrolidine-3-carboxylic acid] | < 10 | < 100 | < 100 | – |
| Cc1c(Nc2nccc3cc(CN4CC[C@@H](O)C4)cnc23)cccc1-c1cccc(-c2nc3cc(CN4CC[C@H](C(=O)O)C4)cc(C#N)c3o2)c1C [Compound 5] | < 10 | < 100 | < 500 | – |
| Cc1c(-c2nc3cc(CN4CCC(C(=O)O)CC4)cc(C#N)c3o2)cccc1-c1cccc(-c2nc3c(s2)CN(C(=O)CN(C)C)C3)c1C [Compound 6, 1-((7-cyano-2-(3′-(5-(2-(dimethylamino)acetyl)-5,6-dihydro-4H-pyrrolo [3,4-d]thiazol-2-yl)-2,2′-dimethylbiphenyl-3-yl)benzo[d]oxazol-5-yl)methyl)piperidine-4-carboxylic acid] | < 10 | < 100 | < 100 | – |
| Cc1c(Nc2nc(C(F)F)nc3cc(CN4CC[C@@](C)(O)C4)cnc23)cccc1-c1cccc(-c2nc3cc(CN4CCC(C(=O)O)CC4)cc(C#N)c3o2)c1C [Compound 27, (R)-1-((7-cyano-2-(3′-(2-(difluoromethyl)-7-((3-hydroxy-3-methylpyrrolidin-1-yl)methyl)pyrido[3,2-d]pyrimidin-4-ylamino)-2,2′-dimethylbipheiryl-3-yl)benzo[d]oxazol-5-yl)methyl)piperidine-4-caiboxylic acid] | – | – | < 100 | < 10 |
| Cc1c(Nc2nc(C(F)F)nc3cc(CN4CC[C@@H](O)C4)cnc23)cccc1-c1cccc(-c2nc3cc(CN4CC[C@@](C)(C(=O)O)C4)cc(C#N)c3o2)c1C [Compound 26, (R)-1-((7-cyano-2-(3′-(2-(difluoromethyl)-7-(((R)-3-hydroxypyrrolidin-1-yl)methyl)pyrido[3,2-d]pyrimidin-4-ylamino)-2,2′-dimethylbipheiryl-3-yl)benzo[d]oxazol-5-yl)methyl)-3-methylpyrrolidine-3-carboxylic acid] | – | < 100 | < 100 | < 10 |
| Cc1c(Nc2nccc3cc(CN4CC[C@H](O)C4)cnc23)cccc1-c1cccc(-c2nc3cc(CN4CC[C@@H](C(=O)O)C4)cc(C#N)c3o2)c1C [Compound 4, (R)-1-((7-cyano-2-(3′-(3-(((S)-3-hydroxypyrrolidin-1-yl)methyl)-1,7-naphthyridin-8-ylamino)-2,2′-dimethylbiphenyl-3-yl)benzo[d]oxazol-5-yl)methyl)pyrrolidine-3-carboxylic acid] | < 100 | < 100 | < 500 | – |
| Cc1c(Nc2nc(C(F)F)nc3cc(CN4CC[C@@H](O)C4)cnc23)cccc1-c1cccc(-c2nc3cc(CN4CC[C@@H](C(=O)O)C4)cc(C#N)c3o2)c1C [Compound 25, (R)-1-((7-cyano-2-(3′-(2-(difluoromethyl)-7-(((R)-3-hydroxypyrrolidin-1-yl)methyl)pyrido[3,2-d]pyrimidin-4-ylamino)-2,2′-dimethylbiphenyl-3-yl)benzo [d]oxazol-5-yl)methyl)pyrrolidine-3-carboxylic acid] | – | < 100 | < 100 | < 10 |
| Cc1c(Nc2nccc3cc(CN4CC[C@@](C)(O)C4)cnc23)cccc1-c1cccc(NC(=O)c2nc3c(n2C)CCN(C[C@H]2CC[C@@H](C(=O)O)CC2)C3)c1Cl [Compound 11, cis-4-((2-(2-chloro-3′-(3-(((R)-3-hydroay-3-methylpyrrolidin-1-yl)methyl)-1,7-naphthyridin-8-ylamino)-2′-methylbiphenyl-3-ylcarbamoyl)-1-methyl-6,7-dihydro-1H-imidazo[4,5-c]pyridin-5(4H)-yl)methyl)cyclohexanecarboxylic acid] | < 10 | < 100 | < 100 | – |
| Cc1c(Nc2nc(C(F)F)nc3cc(CN4CC[C@](C)(O)C4)cnc23)cccc1-c1cccc(-c2nc3cc(CN4CCC(C(=O)O)CC4)cc(C#N)c3o2)c1C [Compound 28, (S)-1-((7-cyano-2-(3′-(2-(difluoromethyl)-7-((3-hydroxy-3-methylpyrrolidin-1-yl)methyl)pyrido[3,2-d]pyrimidin-4-ylamino)-2,2′-dimethylbipheiryl-3-yl)benzo[d]oxazol-5-yl)methyl)pipendine-4-carboxylic acid] | – | – | < 100 | < 10 |
